These results are taken from patent US11518981B2, “Methods of enhancing engraftment activity of hematopoietic stem cells” (CHILDREN'S HOSPITAL MEDICAL CENTER, priority 2017, dated 2022).

One assay has as its system human CD34^+ cells. In words: GFP marking in human grafts of NSG mice. The class given is in vivo. Particulars: limiting dilution transplant; also long-termed secondary human grafts. An excerpt:
NOD.Cg-Prkdcscid Il2rgtm1Wjl/SzJ (NSG) mice were purchased from The Jackson Laboratory (Bar Harbor, Me.). All animals were bred and maintained in a specific pathogen-free environment and all experiments were approved by the Institutional Animal Care and Use (IACUC) Committee. Male and female NSG mice aged 8 to 14 weeks old were fed doxycycline chow (TestDiet; Modified Prolab RMH-1500 with 0.0625% doxycycline) a week prior to, during and for 2 weeks post irradiation. Human engraftment was analyzed in bone marrow (BM), via BM aspirates performed at 6 and 12 weeks from left and right femurs. After sacrifice at 24 weeks, marrow from all of the primary mice (1 T) was harvested. Peripheral blood analysis was also performed in some experiments. Secondary transplants (2 T) were performed after mouse CD45^+ cells were depleted from BM harvested from each 1 T mouse separately, using Biotin Rat Anti-Mouse CD45 (BD Biosciences 553078) and Streptavidin Particles Plus-DM (BD Biosciences 557812) and injected into one irradiated (280 cGy) secondary NSG mouse. […] Total ROS and mitochondrial specific ROS were detected using 10 μM CM-H2DCFDA (ThermoFisher Scientific C6827) and 5 μM MITOSOXTM Red (Red Mitochondrial Superoxide Indicator) (ThermoFisher Scientific M36008) respectively, following manufacturer's instructions.

The test system of assay [1] is CD34^+38^−90^+45RA^−49f^+ HSCs. Put plainly: phenotypic HSC population by flow cytometry. Type of assay: cell-based, human. An excerpt: PE-Cyanine 7 or APC-EFLUOR® 780, APC- or PE-conjugated antibodies directed to human CD34 (BD Biosciences 560710 or 555824), CD38 (eBiosciences, San Diego, Calif. 47-0389-42), CD90 (BioLegend 328120), CD45RA (eBiosciences 17-0458-42), CD49f (BD Biosciences 555736), CD45 (BD 55485 or Biolegend 304026), CD33 (eBiosciences 25-0338-42), CD19 (BD Biosciences 557791), or CD3 (BD Biosciences 555340). Cells (˜5×10^5−1×10^6) were used to label with antibodies as per manufacturer instructions with the appropriate isotype controls. For phospho-flow, primary antibodies phospho-p38 (Thr180/Tyr182; 4092S), phospho-p44/42 MAPK (ERK ½) (Thr202/Tyr204; 4094S), and phospho-JNK (Thr183-Tyr185 PE conjugate; 5755S) (all from Cell Signaling) were used for staining overnight followed by wash and secondary antibody stain including Goat anti-Rabbit IgG (H+L) or Goat anti-Rabbit IgG (H+L) or Pacific Blue (P-10994) antibody. Apoptosis assay was performed using PE Annexin V Apoptosis Detection Kit (BD Biosciences 559763) according to the manufacturer's instructions. Total ROS and mitochondrial specific ROS were detected using 10 μM CM-H2DCFDA (ThermoFisher Scientific C6827) and 5 μM MITOSOX™ Red (Red Mitochondrial Superoxide Indicator) (ThermoFisher Scientific M36008) respectively, following manufacturer's instructions.
(Flow cytometry measures light scatter and fluorescence of single cells or particles in a stream.)

The test system of assay [2] is human MPB derived CD34^+ cells. In words: long term repopulating potential (LTRP) in secondary transplanted (2 T) NSG mice. The settings on record: CD34^+ cells cultured 36-42 h and 72-96 h; 6 weeks post 2 T. Type of assay: in vivo. From the text: NOD.Cg-Prkdcscid Il2rgtm1Wjl/SzJ (NSG) mice were purchased from The Jackson Laboratory (Bar Harbor, Me.). All animals were bred and maintained in a specific pathogen-free environment and all experiments were approved by the Institutional Animal Care and Use (IACUC) Committee. Male and female NSG mice aged 8 to 14 weeks old were fed doxycycline chow (TestDiet; Modified Prolab RMH-1500 with 0.0625% doxycycline) a week prior to, during and for 2 weeks post irradiation. Human engraftment was analyzed in bone marrow (BM), via BM aspirates performed at 6 and 12 weeks from left and right femurs. After sacrifice at 24 weeks, marrow from all of the primary mice (1 T) was harvested. Peripheral blood analysis was also performed in some experiments. Secondary transplants (2 T) were performed after mouse CD45^+ cells were depleted from BM harvested from each 1 T mouse separately, using Biotin Rat Anti-Mouse CD45 (BD Biosciences 553078) and Streptavidin Particles Plus-DM (BD Biosciences 557812) and injected into one irradiated (280 cGy) secondary NSG mouse. For calculating competitive repopulating units (CRU) from limiting dilution transplantation, the L-CALC^TM software (Stem Cell Technologies) was used. All of the mice used for this study were randomly assigned to a treatment group. No animals were excluded from the analysis.

The structures appear in SMILES notation.

For the molecule `Cc1ccc(-n2nc(C(C)(C)C)cc2NC(=O)Nc2ccc(OCCN3CCOCC3)c3ccccc23)cc1` [p38i, 1-[5-tert-butyl-2-(4-methylphenyl)pyrazol-3-yl]-3-[4-(2-morpholin-4-ylethoxy)naphthalen-1-yl]urea], the GFP marking result in the assay on human CD34^+ cells is listed as “did not have any effect”. Besides, the “increased phenotypic HSC population” value in assay [1] (other than prolonged cultures) was “similar”. Further, in assay [1] (prolonged cultures), the “phenotypic HSCs” value is “higher”. Further, in assay [2], the “LTRP in 2 T mice” value is recorded as “restored the LTRP in 2 T mice to levels seen with unmanipulated HSPCs”.
